Two substances from US8946119B2, “Chitooligosaccharides and methods for use in enhancing soybean growth” (Novozymes BioAg A/S, priority 2011, dated 2015) can be followed below.

Experiment [1] relates to Soybean seeds (Jung seed, var. 8168NRR). The experiment is described as follows: Greenhouse soybean seed treatment, leaf surface area. Format: in vivo. As to conditions: seed treatment 3 fl oz/100 lbs of seed; seedlings grown 4 wks; central leaflet of 2nd trifoliate; vs control (water); FIG. 5. As for the experimental part:
Soybean seeds (Jung seed, var. 8168NRR) were treated with various active molecules. Seeds were treated with a liquid dose rate of 3 fl oz/100 lbs of seed. Seeds were allowed to dry for a 2 hours and planted in greenhouse in plastic pots containing 1:1 sand:perlite mixture. Seedlings were grown for 4 wks with occasional liquid fertilizer applications and then the plants were harvested. The central leaflet from the 2nd trifoliate (from down to top) was isolated and measured for surface area on a WinRhizo scanner. The rest of the plants were used for plant dry weight (DW).

The subject of another experiment is soybean foliage. Nature of the experiment: Soybean field trials, foliar treatment, grain yield. As to conditions: in vivo.
Experiment [2] concerns Soybean plants (Jung seed, var. 8168NRR). The experiment is described as follows: Greenhouse soybean foliar treatment, plant dry biomass. It is filed as in vivo. As to conditions: foliar application at V4 growth stage, FIG. 8. As for the experimental part: Soybean plants (Jung seed, var. 8168NRR) were treated with various active molecules at V4 growth stage. Plant were grown from seeds in greenhouse in plastic pots containing 1:1 sand:perlite mixture. Seedlings were grown for 4 wks with occasional liquid fertilizer applications and then the plants were harvested.

For experiment [3], the system named is Soybean seeds (Pioneer 9oM80). The experiment is described as follows: Soybean seed treatment in petriplates, radicle length. It is filed as in vivo. As to conditions: germination paper soaked with 5 ml of treatment solution; radicles measured after 48 hours; FIG. 7. As for the experimental part:
Soybean seeds (Pioneer 9oM80) were plated in petriplates on moist germination paper soaked with 5 ml of treatment solution containing either water or Soybean LCO, Pea CO and CO plus fatty acids. Seedling radicles were isolated after 48 hours and measured for their length.

On to LCO-V (C18:1) [LCO (SP104)], for which the leaf surface area result in experiment [1] is reported as “significant increase in leaf surface area”. In addition, in the experiment on soybean foliage, the “Positive Yield Response (%)” value is reported as 68.4%; the “Response (bu/A) over Control” value was found to be 1.8 bu/A; the “Response Increase (% of Control)” value stood at 3%; the “YIELD, Mean (N = 19)” value worked out at 58.3 bu/A.
With LCO-V(C18:1, MeFuc) [soybean LCO], the plant dry biomass entry is reported as “no significant effect on plant dry biomass increase” in experiment [2] and “relatively higher than the control plants” in experiment [2] (listed as LCO). The radicle length result in experiment [3] was “better seed radicle growth enhancement over control and CO”.
